Experiments:
GCN2 kinase = GCN2 kinase (Homo sapiens (Human), UniProt Q9P2K8); assay: GCN2 Enzyme Inhibition Assay (Transcreener ADP2 fluorescence polarization); type: biochemical; details: 280 μM ATP, 200 μM (RS)7 peptide, 4 nM GCN2, 25° C.; for Ki: Ki(app)
Outline: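 At 25 °C, GCN2 kinase (typical final concentration 4 nM) and (RS)7 peptide in Tris-HCl pH 7.5 buffer with MgCl2, NaCl and DTT were preincubated with compound for 10 min, then ATP was added for a 1 h reaction. ADP was read by FP with antibody/Alexa633 tracer. Non-linear tight-binding analysis gave IC50 and apparent Ki.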

[1] = target: intracellular GCN2 (phosphorylation of the GCN2 substrate eIF2α) (Homo sapiens (Human), UniProt Q9P2K8); assay: GCN2 Cellular Inhibition Assay (AlphaScreen SureFire P-eIF2α Ser51, borrelidin-treated U2OS cells); type: cell-based; details: 10 μM borrelidin, 1 h, phosphorylated eIF2α Ser51, read-out: GCN2 Biomarker (IC50)
Sequence of intracellular GCN2 (phosphorylation of the GCN2 substrate eIF2α) (Q9P2K8 whole entry): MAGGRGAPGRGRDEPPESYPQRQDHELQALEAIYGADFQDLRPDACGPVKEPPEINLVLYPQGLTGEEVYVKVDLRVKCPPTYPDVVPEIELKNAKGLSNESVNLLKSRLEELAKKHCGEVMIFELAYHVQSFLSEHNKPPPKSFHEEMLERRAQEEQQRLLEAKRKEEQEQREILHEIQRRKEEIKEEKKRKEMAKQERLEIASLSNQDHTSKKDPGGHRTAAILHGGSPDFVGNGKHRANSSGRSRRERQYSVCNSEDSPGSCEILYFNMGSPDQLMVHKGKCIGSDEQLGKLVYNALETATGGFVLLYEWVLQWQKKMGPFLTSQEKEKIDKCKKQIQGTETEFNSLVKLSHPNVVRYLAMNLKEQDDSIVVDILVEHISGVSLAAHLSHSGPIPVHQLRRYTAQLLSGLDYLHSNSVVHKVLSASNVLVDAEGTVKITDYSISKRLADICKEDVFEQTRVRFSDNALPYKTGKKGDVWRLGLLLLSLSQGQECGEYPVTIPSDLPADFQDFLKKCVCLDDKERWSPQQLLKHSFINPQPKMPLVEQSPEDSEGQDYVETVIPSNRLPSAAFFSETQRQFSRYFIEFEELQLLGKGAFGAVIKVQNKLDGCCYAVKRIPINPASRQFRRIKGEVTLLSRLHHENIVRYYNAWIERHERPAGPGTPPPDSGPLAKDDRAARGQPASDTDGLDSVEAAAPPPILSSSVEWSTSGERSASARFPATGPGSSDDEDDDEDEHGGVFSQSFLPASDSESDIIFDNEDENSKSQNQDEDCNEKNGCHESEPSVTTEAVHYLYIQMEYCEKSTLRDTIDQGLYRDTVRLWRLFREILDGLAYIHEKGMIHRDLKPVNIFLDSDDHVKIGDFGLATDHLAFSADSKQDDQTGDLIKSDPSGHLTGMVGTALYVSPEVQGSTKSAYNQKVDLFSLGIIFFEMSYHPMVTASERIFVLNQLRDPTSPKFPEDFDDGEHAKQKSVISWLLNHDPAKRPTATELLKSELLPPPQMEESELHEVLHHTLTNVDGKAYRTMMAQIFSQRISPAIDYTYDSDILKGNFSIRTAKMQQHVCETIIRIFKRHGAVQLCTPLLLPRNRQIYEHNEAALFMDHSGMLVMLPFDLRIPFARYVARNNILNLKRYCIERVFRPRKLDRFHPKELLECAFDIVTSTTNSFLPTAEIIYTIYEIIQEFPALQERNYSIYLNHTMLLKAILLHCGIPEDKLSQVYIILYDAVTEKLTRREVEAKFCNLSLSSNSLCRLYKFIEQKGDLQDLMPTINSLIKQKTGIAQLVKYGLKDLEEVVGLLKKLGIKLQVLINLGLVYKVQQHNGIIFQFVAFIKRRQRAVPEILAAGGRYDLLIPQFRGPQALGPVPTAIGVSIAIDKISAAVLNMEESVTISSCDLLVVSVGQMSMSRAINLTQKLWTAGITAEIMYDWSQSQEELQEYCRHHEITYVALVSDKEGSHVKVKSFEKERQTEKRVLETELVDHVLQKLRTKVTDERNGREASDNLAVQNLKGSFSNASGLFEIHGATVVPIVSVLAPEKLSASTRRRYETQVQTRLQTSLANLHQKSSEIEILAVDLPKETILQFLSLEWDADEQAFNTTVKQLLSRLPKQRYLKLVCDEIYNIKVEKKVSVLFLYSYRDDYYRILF
Protocol: Compounds can be screened for their ability to inhibit intracellular GCN2 using an AlphaScreen assay (Perkin Elmer) to detect phosphorylation of the GCN2 substrate eIF2α in borrelidin-treated cells. U2OS cells are plated at 5,000 cells per well in 384-well white polystyrene plates (Corning 3570) in McCoy's 5A media (GIBCO 26600-023) supplemented with 10% foetal bovine serum (SAFC 12103C), Penicillin/Streptomycin solution diluted 1:100 (Sigma P0781), and 2 mM L-glutamine (Sigma G7513), and allowed to adhere overnight at 37° C. in 5% CO2. Compounds are then added to the cell media from a final concentration of 40 μM in 4-fold serial dilutions. Borrelidin (FluoroChem M01440) is immediately added to the wells to a final concentration of 10 μM and the cells are incubated for 1 h at 37° C. in 5% CO2. After 1 h of treatment with borrelidin, the media is removed, and the cells are lysed with lysis buffer (TGR BioSceinces TGRLB) at ambient temperature.
An AlphaScreen SureFire P-eIF2α (Ser51) assay kit (Perkin Elmer TGREIF2S) was used to measure levels of eIF2α phosphorylated on Serine 51. Anti-phosphorylated eIF2α Ser51 antibody-linked acceptor beads (TGR BioScience 6760617) are added to the cell homogenate (diluted 1:250 into a mixture of activation (TGR BioScience TGRAB) and reaction buffer (TGR BioScience TGREIF2S) prepared immediately before use). The plate is then incubated for 2 h at ambient temperature in the dark. Anti-eIF2α antibody-linked donor beads (TGR BioScience 6760617) were then added (diluted 1:100 in dilution buffer (TGR BioScience TGRDB) prepared immediately before use). The plate is then incubated overnight at ambient temperature in the dark.
Plates are analyzed on an Alpha Technology-compatible PHERAstar FS plate reader (BMG Labtech Version 1.14) to quantify phosphorylated eIF2α Ser51 levels. The percentage inhibition of phosphorylated eIF2α is calculated by comparison to control wells stimulated with borrelidin alone.

Sequence of GCN2 kinase (Q9P2K8 whole entry): as above

| Structure (SMILES) | IC50 (GCN2 kinase) [nM] | IC50 [1] [nM] | Ki (GCN2 kinase) [nM] |
| --- | --- | --- | --- |
| CS(=N)(=O)C[C@H]1CCCN(c2ccnc(-c3cnc4ccc(Cl)cn34)n2)C1 (stereo in doubt) [I-21, 6-Chloro-3-(4-(3-((methylsulfonimidoyl)methyl)piperidin-1-yl)pyrimidin-2-yl)imidazo[1,2-a]pyridine] |  | 500 to 5000 | 10 to 100 |
| Cc1oncc1[C@H]1CN(c2ccnc(-c3cnc4ccc(C(F)(F)F)cn34)n2)C[C@@H](C)O1 [I-347, (2R,6S)-2-methyl-6-(5-methylisoxazol-4-yl)-4-(2-(6-(trifluoromethyl)imidazo[1,2-a]pyridin-3-yl)pyrimidin-4-yl)morpholine] | 100 to 1000 | 500 to 5000 |  |
| CP(C)(=O)C1CC(c2cn[nH]c2)CN(c2ccnc(-c3cnc4ccc(Cl)cn34)n2)C1 (stereo not drawn) [I-29, 6-Chloro-3-[4-[3-dimethylphosphoryl-5-(1H-pyrazol-4-yl)-1-piperidyl]pyrimidin-2-yl]imidazo[1,2-a]pyridine] |  | > 5000 | < 10 |
| Clc1ccc2ncc(-c3nccc(N4CCCC(c5c[nH]cn5)C4)n3)n2c1 (stereo not drawn) [I-55, 6-Chloro-3-{4-[3-(1H-imidazol-4-yl)-piperidin-1-yl]-pyrimidin-2-yl}-imidazo[1,2-a]pyridine] |  | 500 to 5000 | 10 to 100 |
| C[C@@H]1C[C@H](N=S(C)(C)=O)CN(c2ccnc(-c3cnc4cc(F)c(Br)cn34)n2)C1 [I-317, (((3 S,5R)-1-(2-(6-bromo-7-fluoroimidazo[1,2-a]pyridin-3-yl)pyrimidin-4-yl)-5-methylpiperidin-3-yl)imino)dimethyl-λ6-sulfanone] | 10 to 100 | 500 to 5000 |  |
| O=C(c1cnn(C2COC2)c1)N1CCN(c2ccnc(-c3cnc4ccc(C(F)(F)F)cn34)n2)CC1c1cn[nH]c1 (stereo not drawn) [I-417, (2-(1H-pyrazol-4-yl)-4-(2-(6-(trifluoromethyl)imidazo[1,2-a]pyridin-3-yl)pyrimidin-4-yl)piperazin-1-yl)(1-(oxetan-3-yl)-1H-pyrazol-4-yl)methanone] | 100 to 1000 | > 5000 |  |
| O=C(c1cnoc1)N1CCN(c2ccnc(-c3cnc4ccc(C(F)(F)F)cn34)n2)CC1c1cn[nH]c1 (stereo not drawn) [I-444, (2-(1H-pyrazol-4-yl)-4-(2-(6-(trifluoromethyl)imidazo[1,2-a]pyridin-3-yl)pyrimidin-4-yl)piperazin-1-yl)(isoxazol-4-yl)methanone] | 10 to 100 | 500 to 5000 |  |
| C[C@H]1CN(c2ccnc(-c3cnc4ccc(C(F)(F)F)cn34)n2)C[C@@H](CNS(C)(=O)=O)C1(F)F (stereo in doubt) [I-8, N-[[-4,4-Difluoro-5-methyl-1-[2-[6-(trifluoromethyl)imidazo[1,2-a]pyridin-3-yl]pyrimidin-4-yl]-3-piperidyl]methyl]methanesulfonamide] |  | 500 to 5000 | 10 to 100 |
| Cc1cc(-c2cnc3ccc(Cl)cn23)nc(N2C[C@@H](C)O[C@H](c3cn[nH]c3C)C2)n1 [I-218, (2R,6R)-4-(4-(6-chloroimidazo[1,2-a]pyridin-3-yl)-6-methylpyrimidin-2-yl)-2-methyl-6-(5-methyl-1H-pyrazol-4-yl)morpholine] | 10 to 100 | 500 to 5000 |  |
| C[C@H]1[C@@H](c2cn[nH]c2)N(C2COC2)CCN1c1ccnc(-c2cnc3ccc(C(F)(F)F)cn23)n1 [I-361, 3-(4-((2S,3R)-2-methyl-4-(oxetan-3-yl)-3-(1H-pyrazol-4-yl)piperazin-1-yl)pyrimidin-2-yl)-6-(trifluoromethyl)imidazo[1,2-a]pyridine] | 10 to 100 | 500 to 5000 |  |
| C[C@H]1[C@@H](CNS(C)(=O)=O)N(C2CC2)CCN1c1nccc(-c2cnc3ccc(C(F)(F)F)cn23)n1 [I-541, N-(((2R,3 S)-1-cyclopropyl-3-methyl-4-(4-(6-(trifluoromethyl)imidazo[1,2-a]pyridin-3-yl)pyrimidin-2-yl)piperazin-2-yl)methyl)methanesulfonamide] | 100 to 1000 | 500 to 5000 |  |

Results, then the molecule that gave them:

| IC50 (GCN2 kinase) [nM] | IC50 [1] [nM] | Ki (GCN2 kinase) [nM] | Structure (SMILES) |
| --- | --- | --- | --- |
| < 10 | < 500 |  | OCC1CC(N2CCN(c3ccnc(-c4cnc5ccc(C(F)(F)F)cn45)n3)CC2c2cn[nH]c2)C1 (stereo not drawn) [I-390, (3-(2-(1H-pyrazol-4-yl)-4-(2-(6-(trifluoromethyl)imidazo[1,2-a]pyridin-3-yl)pyrimidin-4-yl)piperazin-1-yl)cyclobutyl)methanol] |
| < 10 | < 500 |  | CC1[C@@H](c2cn[nH]c2)NCCN1c1ccnc(-c2cnc3ccc(C(F)(F)F)cn23)n1 (stereo partly drawn) [I-310, 3-(4-((3R)-2-methyl-3-(1H-pyrazol-4-yl)piperazin-1-yl)pyrimidin-2-yl)-6-(trifluoromethyl)imidazo[1,2-a]pyridine] |
| 100 to 1000 | 500 to 5000 |  | N#C[C@@H]1CN(c2ccnc(-c3cnc4ccc(C(F)(F)F)cn34)n2)CCO1 [I-232, (S)-4-(2-(6-(trifluoromethyl)imidazo[1,2-a]pyridin-3-yl)pyrimidin-4-yl)morpholine-2-carbonitrile] |
| 10 to 100 | 500 to 5000 |  | O[C@@H]1C[C@H](O)CN(c2ccnc(-c3cnc4ccc(C(F)(F)F)cn34)n2)C1 [I-238, (3R,5S)-1-(2-(6-(trifluoromethyl)imidazo[1,2-a]pyridin-3-yl)pyrimidin-4-yl)piperidine-3,5-diol] |
| 10 to 100 | < 500 |  | CC1C(c2cn[nH]c2)N(C2COC2)CCN1c1ccnc(-c2cnc3ccc(C(F)(F)F)cn23)n1 (stereo not drawn) [I-322, 4-[2-methyl-4-(oxetan-3-yl)-3-(1H-pyrazol-4-yl)piperazin-1-yl]-2-[6-(trifluoromethyl)imidazo[1,2-a]pyridin-3-yl]pyrimidine] |
| 10 to 100 | 500 to 5000 |  | NC(=O)C1CN(c2ccnc(-c3cnc4ccc(C(F)(F)F)cn34)n2)CCN1C1CC1 (stereo not drawn) [I-311, 1-cyclopropyl-4-(2-(6-(trifluoromethyl)imidazo[1,2-a]pyridin-3-yl)pyrimidin-4-yl)piperazine-2-carboxamide] |
|  | < 500 | < 10 | FC(F)(F)c1ccc2ncc(-c3ccnc(N4CCOC(c5cn[nH]c5)C4)n3)n2c1 (stereo not drawn) [I-9, 2-(1H-Pyrazol-4-yl)-4-(4-(6-(trifluoromethyl)imidazo[1,2-a]pyridin-3-yl)pyrimidin-2-yl)morpholine] |
| < 10 | < 500 |  | C[C@@H]1[C@H](CNS(C)(=O)=O)N(C2CC2)CCN1c1nccc(-c2cnc3ccc(C(F)(F)F)cn23)n1 [I-543, N-{(2S,3R)-1-Cyclopropyl-3-methyl-4-[4-(6-trifluoromethyl-imidazo[1,2-a]pyridin-3-yl)-pyrimidin-2-yl]-piperazin-2-ylmethyl}-methanesulfonamide] |
| 100 to 1000 | < 500 |  | COCCn1cc([C@@H]2C[C@@H](C)CN(c3nccc(-c4cnc5ccc(C(F)(F)F)cn45)n3)C2)cn1 [I-145, 3-(2-((3S,5R)-3-(1-(2-methoxyethyl)-1H-pyrazol-4-yl)-5-methylpiperidin-1-yl)pyrimidin-4-yl)-6-(trifluoromethyl)imidazo[1,2-a]pyridine] |
| 10 to 100 | < 500 |  | C[C@H]1CN(c2nccc(-c3cnc4ccc(C(F)(F)F)cn34)n2)CC(c2cc[nH]n2)O1 (stereo in doubt) [I-138, (2S,6R)-2-methyl-6-(1H-pyrazol-3-yl)-4-(4-(6-(trifluoromethyl)imidazo[1,2-a]pyridin-3-yl)pyrimidin-2-yl)morpholine] |

From patent US10793563B2, “GCN2 inhibitors and uses thereof” (Merck Patent GmbH, priority 2018, dated 2020)
